Measurements as given in ChEMBL document CHEMBL4334425, “Eradicating uropathogenic Escherichia coli biofilms with a ciprofloxacin-dinitroxide conjugate” (Medchemcomm, 2019).
Active and inactive are the calls of the source. No cut-off for these calls is given here.

Tests used:
[1] = tested on: Escherichia coli; assay: Antibiofilm activity against Escherichia coli UTI89 incubated for 24 hrs; format: functional
[2] = tested on: Escherichia coli; assay: Antibacterial activity against Escherichia coli UTI89 incubated for 18 hrs by broth microdilution method; format: functional
[3] = tested on: Escherichia coli; assay: Antibacterial activity against Escherichia coli UTI89 incubated for 18 hrs in presence of 1:2 ratio of ciprofloxacin to compound by broth microdilution method; format: functional
[4] = tested on: Escherichia coli; assay: Antibiofilm activity against Escherichia coli UTI89 incubated for 24 hrs in presence of 1:2 ratio of ciprofloxacin to compound; format: functional
[5] = tested on: Escherichia coli; assay: Antibiofilm activity against Escherichia coli UTI89 assessed as dead cells at 400 uM incubated for 24 hrs by SYTO9 and PI staining based fluorescence microscopic method; format: functional, organism-based
[6] = tested on: Escherichia coli; assay: Antibiofilm activity against Escherichia coli UTI89 at 12.5 uM incubated for 24 hrs by SYTO9 and PI staining based fluorescence microscopic method; format: functional
[7] = tested on: Escherichia coli; assay: Potentiation of ciprofloxacin-induced antibiofilm activity against Escherichia coli UTI89 assessed as increase in ciprofloxacin-induced reduction in CFU at 20 uM incubated for 24 hrs relative to control; format: functional; set-up: scale not given: the % may be the effect or the level left
[8] = tested on: T-24; assay: Cytotoxicity against human T24 cells assessed as reduction in cell viability incubated for 24 hrs by LDH assay; format: cell-based
[9] = tested on: Escherichia coli; assay: Antibiofilm activity against Escherichia coli UTI89 at 400 uM incubated for 24 hrs by SYTO9 and PI staining based fluorescence microscopic method; format: functional
[10] = tested on: Escherichia coli; assay: Potentiation of ciprofloxacin-induced antibiofilm activity against Escherichia coli UTI89 assessed as increase in ciprofloxacin-induced reduction in CFU at 80 uM incubated for 24 hrs relative to control; format: functional; set-up: scale not given: the % may be the effect or the level left
[11] = tested on: Escherichia coli; assay: Potentiation of ciprofloxacin-induced antibiofilm activity against Escherichia coli UTI89 assessed as increase in ciprofloxacin-induced log reduction in CFU at 40 uM incubated for 24 hrs; format: functional
[12] = tested on: Escherichia coli; assay: Potentiation of ciprofloxacin-induced antibiofilm activity against Escherichia coli UTI89 assessed as increase in ciprofloxacin-induced log reduction in CFU at 20 uM incubated for 24 hrs; format: functional
[13] = tested on: Escherichia coli; assay: Ratio of MBEC for ciprofloxacin to compound for antibiofilm activity against Escherichia coli UTI89; format: functional
[14] = tested on: Escherichia coli; assay: Antibiofilm activity against Escherichia coli UTI89 assessed as reduction in biofilm residing cells at 12.5 uM incubated for 24 hrs relative to control; format: functional; set-up: scale not given: the % may be the effect or the level left
[15] = tested on: Escherichia coli; assay: Antibiofilm activity against Escherichia coli UTI89 assessed as reduction in viable bioflim associated cells at 12.5 uM incubated for 24 hrs relative to control; format: functional
[16] = tested on: Escherichia coli; assay: Antibiofilm activity against Escherichia coli UTI89 assessed as small bacterial cells at 400 uM incubated for 24 hrs by SYTO9 and PI staining based fluorescence microscopic method; format: functional, organism-based
[17] = tested on: Escherichia coli; assay: Potentiation of ciprofloxacin-induced antibiofilm activity against Escherichia coli UTI89 assessed as increase in ciprofloxacin-induced log reduction in CFU at 80 uM incubated for 24 hrs; format: functional
[18] = tested on: Escherichia coli; assay: Antibiofilm activity against Escherichia coli UTI89 assessed as cell filamentation at 12.5 to 25 uM incubated for 24 hrs by SYTO9 and PI staining based fluorescence microscopic method; format: functional, organism-based
[19] = tested on: Escherichia coli; assay: Potentiation of ciprofloxacin-induced antibiofilm activity against Escherichia coli UTI89 assessed as increase in ciprofloxacin-induced reduction in CFU at 40 uM incubated for 24 hrs relative to control; format: functional; set-up: scale not given: the % may be the effect or the level left
[20] = Escherichia coli, UTI89, 18 h, read-out: MIC

Q: What does the source list for `O=C(O)c1cn(C2CC2)c2cc(N3CCNCC3)c(F)cc2c1=O` [CIPROFLOXACIN]?
A: MBEC [1]: <=800 uM; MIC [2, 20]: ≤ 0.045 µM

Q: Which results are given for `CON1C(C)(C)CC(C(=O)NCCCC[C@H](N)C(=O)N2CCN(c3cc4c(cc3F)c(=O)c(C(=O)O)cn4C3CC3)CC2)CC1(C)C`?
A: MBEC [1]: >1000 µM; MIC [2, 20]: ≤ 30.6 µM

Q: `CC1(C)CC(C(=O)O)CC(C)(C)N1[O]` was tested. Which MIC [3] did it give?
A: <=0.045 uM

Q: What about the MBEC [4] of the same molecule?
A: <=800 uM

Q: And the MBEC [1]?
A: >1000 µM

Q: And the MIC [2]?
A: >1000 µM

Q: How did the MBEC [1] turn out when `CC1(C)CC(C(=O)NCCCC[C@H](N)C(=O)N2CCN(c3cc4c(cc3F)c(=O)c(C(=O)O)cn4C3CC3)CC2)CC(C)(C)N1[O]` was run?
A: > 1000 µM

Q: What about the MIC [2] of the same molecule?
A: < 1.95 µM

Q: Which results are given for `CON1C(C)(C)CC(C(=O)NCCCC[C@H](NC(=O)[C@@H](N)CCCCNC(=O)C2CC(C)(C)N(OC)C(C)(C)C2)C(=O)N2CCN(c3cc4c(cc3F)c(=O)c(C(=O)O)cn4C3CC3)CC2)CC1(C)C`?
A: MBEC [1]: >650 µM; MIC [2, 20]: ≤ 81.6 µM

Q: For `CC1(C)CC(C(=O)NCCCC[C@H](NC(=O)[C@@H](N)CCCCNC(=O)C2CC(C)(C)N([O])C(C)(C)C2)C(=O)N2CCN(c3cc4c(cc3F)c(=O)c(C(=O)O)cn4C3CC3)CC2)CC(C)(C)N1[O]`, which Activity [5] is on record?
A: Active

Q: And the Activity [6]?
A: >99%

Q: And the Activity [7]?
A: 98%

Q: What about the IC50 [8] of the same molecule?
A: > 500 µM

Q: What about the Activity [9] of the same molecule?
A: 99.9%

Q: And the Activity [10]?
A: 50%

Q: And the Activity [11]?
A: 1.82 log10CFU

Q: And the Activity [12]?
A: 1.35 log10CFU

Q: And the Ratio [13]?
A: 2

Q: What about the Activity [14] of the same molecule?
A: 99.7%

Q: And the “fold change (FC)” value [15]?
A: 3

Q: What about the Activity [16] of the same molecule?
A: Active

Q: And the Activity [17]?
A: 2.69 log10CFU

Q: And the Activity [18]?
A: Active

Q: And the Activity [19]?
A: 93%

Q: And the MBEC [1]?
A: <=400 uM

Q: What about the MIC [2] of the same molecule?
A: <=10.5 uM
